# Molecular target: T1, Recombinant human liver GK1 (GST-GK) (Homo sapiens, UniProt P35557)
# T1 construct: made in house; host or cells: E. coli
# T1 sequence (P35557 1-466 isoform P35557-2): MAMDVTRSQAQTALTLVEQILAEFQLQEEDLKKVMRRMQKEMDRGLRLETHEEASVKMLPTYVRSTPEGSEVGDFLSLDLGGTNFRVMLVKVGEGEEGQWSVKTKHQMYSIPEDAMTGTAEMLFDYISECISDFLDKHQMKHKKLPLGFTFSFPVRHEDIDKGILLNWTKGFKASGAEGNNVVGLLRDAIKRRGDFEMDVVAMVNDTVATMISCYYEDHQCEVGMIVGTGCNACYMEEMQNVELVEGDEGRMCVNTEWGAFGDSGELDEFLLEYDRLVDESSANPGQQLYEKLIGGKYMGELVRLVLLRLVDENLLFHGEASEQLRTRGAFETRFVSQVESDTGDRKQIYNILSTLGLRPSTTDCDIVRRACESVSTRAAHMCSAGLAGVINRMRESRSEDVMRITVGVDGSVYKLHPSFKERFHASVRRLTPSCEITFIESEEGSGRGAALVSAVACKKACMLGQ
# Experiment: Glucokinase in vitro assay (G6PDH-coupled NADH generation, OD340)
# Type: biochemical
# Conditions: 5 mM D-glucose, 30° C., pH 7.1, 10% DMSO
# Experimental: Glucokinase In Vitro Assay Protocol: Glucokinase (GK) was assayed by coupling the production of glucose-6-phosphate to the generation of NADH with glucose-6-phosphate dehydrogenase (G6PDH, 0.75-1 k units/mg; Boehringer Mannheim, Indianapolis, Ind.) from Leuconostoc mesenteroides as the coupling enzyme (Scheme 2):
# Recombinant human liver GK1 was expressed in E. coli as a glutathione S-transferase fusion protein (GST-GK) [Liang et al, 1995] and was purified by chromatography over a glutathione-Sepharose 4B affinity column using the procedure provided by the manufacturer (Amersham Pharmacia Biotech, Piscataway, N.J.).
# The assay was conducted at 30° C. in a flat bottom 96-well tissue culture plate from Costar (Cambridge, Mass.) with a final incubation volume of 120 μL. The incubation reaction contained the following: 25 mM Hepes buffer (pH 7.1), 25 mM KCl, 5 mM D-glucose, 1 mM ATP, 1.8 mM NAD, 2 mM MgCl2, 1 μM sorbitol-6-phosphate, 1 mM dithiothreitol, test drug or 10% DMSO, ˜7 units/ml G6PDH, and GK (see below). All organic reagents were >98% pure and were from Boehringer Mannheim with the exceptions of D-glucose and Hepes which were from Sigma Chemical Co, St Louis, Mo. Test compounds were dissolved in DMSO and were added to the incubation reaction minus GST-GK in a volume of 12 μL to yield a final DMSO concentration of 10%. This mix was pre-incubated in the temperature controlled chamber of a SPECTRAmax 250 microplate spectrophotometer (Molecular Devices Corporation, Sunnyvale, Calif.) for 10 minutes to allow temperature equilibrium and then the reaction was started by the addition of 20 μL GST-GK.
# After addition of enzyme, the increase in optical density (OD) at 340 nm was monitored spectrophotometrically to determine the rate of change (OD340 per min). The GK activity (OD340/min) in control wells (10% DMSO minus GK activators) was compared with the activity in wells containing test GK activators, and the concentration of activator that produced a 50% increase in the activity of GK, i.e., the SC1.5, was calculated. The table below provides the in vitro glucokinase activity for the compounds in the Examples: […]
row,Compound,SC1.5 average (concentration of activator that produced a 50% increase in the activity of GK) [µM]
1,"O=C(Nc1cnc(C(O)CO)cn1)C(CC1CCCC1)n1ncc(Oc2c(F)cccc2F)cc1=O (stereo in doubt) [Example 106, 3-Cyclopentyl-2-[4-(2,6-difluoro-phenoxy)-6-oxo-6H-pyridazin-1-yl]-N-[5-((R)-1,2-dihydroxy-ethyl)-pyrazin-2-yl]-propionamide]",0.082
2,"CC(C)(O)Cn1ccc(NC(=O)C(CC2CCCC2)n2ncc(Oc3ccccc3)cc2=O)n1 (stereo not drawn) [Example 1, 3-Cyclopentyl-N-[1-(2-hydroxy-2-methyl-propyl)-1H-pyrazol-3-yl]-2-(6-oxo-4-phenoxy-6H-pyridazin-1-yl)-propionamide]",0.707
3,"Cc1nsc(NC(=O)C(CC2CCCC2)n2ncc(Oc3ccccc3)cc2=O)n1 (stereo not drawn) [Example 3, 3-Cyclopentyl-N-(3-methyl-[1,2,4]thiadiazol-5-yl)-2-(6-oxo-4-phenoxy-6H-pyridazin-1-yl)-propionamide]",2.07
4,"Cc1nnc(NC(=O)C(CC2CCCC2)n2ncc(Oc3ccccc3)cc2=O)s1 (stereo not drawn) [Example 4, 3-Cyclopentyl-N-(5-methyl-[1,3,4]thiadiazol-2-yl)-2-(6-oxo-4-phenoxy-6H-pyridazin-1-yl)-propionamide]",6.205
5,"CC(C)(O)Cn1ccc(NC(=O)C(CC2CCCC2)n2ncc(Oc3ccc(C(F)(F)F)cc3)cc2=O)n1 (stereo not drawn) [Example 5, 3-Cyclopentyl-N-[1-(2-hydroxy-2-methyl-propyl)-1H-pyrazol-3-yl]-2-[6-oxo-4-(4-trifluoromethyl-phenoxy)-6H-pyridazin-1-yl]-propionamide]",2.267
6,"CC(C)(O)Cn1ccc(NC(=O)C(CC2CCCC2)n2ncc(Oc3cccc(C(F)(F)F)c3)cc2=O)n1 (stereo not drawn) [Example 6, 3-Cyclopentyl-N-[1-(2-hydroxy-2-methyl-propyl)-1H-pyrazol-3-yl]-2-[6-oxo-4-(3-trifluoromethyl-phenoxy)-6H-pyridazin-1-yl]-propionamide]",0.844
7,"COc1cccc(Oc2cnn(C(CC3CCCC3)C(=O)Nc3ccn(CC(C)(C)O)n3)c(=O)c2)c1 (stereo not drawn) [Example 7, 3-Cyclopentyl-N-[1-(2-hydroxy-2-methyl-propyl)-1H-pyrazol-3-yl]-2-[4-(3-methoxy-phenoxy)-6-oxo-6H-pyridazin-1-yl]-propionamide]",0.428
8,"CC(C)(O)Cn1ccc(NC(=O)C(CC2CCCC2)n2ncc(OCC3CCCC3)cc2=O)n1 (stereo not drawn) [Example 9, 3-Cyclopentyl-2-(4-cyclopentylmethoxy-6-oxo-6H-pyridazin-1-yl)-N-[1-(2-hydroxy-2-methyl-propyl)-1H-pyrazol-3-yl]-propionamide]",1.548
9,"CC(C)(O)Cn1ccc(NC(=O)C(CC2CCCC2)n2ncc(OCC3CCCC3)c(Cl)c2=O)n1 (stereo not drawn) [Example 10, 2-(5-Chloro-4-cyclopentylmethoxy-6-oxo-6H-pyridazin-1-yl)-3-cyclopentyl-N-[1-(2-hydroxy-2-methyl-propyl)-1H-pyrazol-3-yl]-propionamide]",11.438
10,"CC(C)(O)Cn1ccc(NC(=O)[C@H](CC2CCCC2)n2ncc(Oc3ccccc3C(F)(F)F)cc2=O)n1 [Example 11A, (S)-3-Cyclopentyl-N-[1-(2-hydroxy-2-methyl-propyl)-1H-pyrazol-3-yl]-2-[6-oxo-4-(2-trifluoromethyl-phenoxy)-6H-pyridazin-1-yl]-propionamide]",0.099
11,"CC(C)(O)Cn1ccc(NC(=O)[C@@H](CC2CCCC2)n2ncc(Oc3ccccc3C(F)(F)F)cc2=O)n1 [Example 11B, (R)-3-Cyclopentyl-N-[1-(2-hydroxy-2-methyl-propyl)-1H-pyrazol-3-yl]-2-[6-oxo-4-(2-trifluoromethyl-phenoxy)-6H-pyridazin-1-yl]-propionamide]",6.893
12,"COc1ccc(Oc2cnn(C(CC3CCCC3)C(=O)Nc3ccn(CC(C)(C)O)n3)c(=O)c2)cc1 (stereo not drawn) [Example 15, 3-Cyclopentyl-N-[1-(2-hydroxy-2-methyl-propyl)-1H-pyrazol-3-yl]-2-[4-(4-methoxy-phenoxy)-6-oxo-6H-pyridazin-1-yl]-propionamide]",1.025
13,"COC(=O)c1cc(NC(=O)C(CC2CCCC2)n2ncc(Oc3ccccc3C(F)(F)F)cc2=O)nn1C (stereo not drawn) [Example 16, 5-{3-Cyclopentyl-2-[6-oxo-4-(2-trifluoromethyl-phenoxy)-6H-pyridazin-1-yl]-propionylamino}-2-methyl-2H-pyrazole-3-carboxylic acid methyl ester]",4.548
14,"CC(C)(O)Cn1ccc(NC(=O)[C@H](CC2CCCC2)n2ncc(Oc3cccc4c3CCCC4)cc2=O)n1 [Example 17A, (S)-3-Cyclopentyl-N-[1-(2-hydroxy-2-methyl-propyl)-1H-pyrazol-3-yl]-2-[6-oxo-4-(5,6,7,8-tetrahydro-naphthalen-1-yloxy)-6H-pyridazin-1-yl]-propionamide]",0.051
15,"CC(C)(O)Cn1ccc(NC(=O)[C@@H](CC2CCCC2)n2ncc(Oc3cccc4c3CCCC4)cc2=O)n1 [Example 17B, (R)-3-Cyclopentyl-N-[1-(2-hydroxy-2-methyl-propyl)-1H-pyrazol-3-yl]-2-[6-oxo-4-(5,6,7,8-tetrahydro-naphthalen-1-yloxy)-6H-pyridazin-1-yl]-propionamide]",9.14
16,"CC(C)(O)Cn1ccc(NC(=O)C(CC2CCCC2)n2ncc(Oc3cccc(F)c3)cc2=O)n1 (stereo not drawn) [Example 18, 3-Cyclopentyl-2-[4-(3-fluoro-phenoxy)-6-oxo-6H-pyridazin-1-yl]-N-[1-(2-hydroxy-2-methyl-propyl)-1H-pyrazol-3-yl]-propionamide]",0.634
17,"CC(C)(O)Cn1ccc(NC(=O)[C@H](CC2CCCC2)n2ncc(Oc3ccccc3F)cc2=O)n1 [Example 19A, (S)-3-Cyclopentyl-2-[4-(2-fluoro-phenoxy)-6-oxo-6H-pyridazin-1-yl]-N-[1-(2-hydroxy-2-methyl-propyl)-1H-pyrazol-3-yl]-propionamide]",0.104
18,"CC(C)(O)Cn1ccc(NC(=O)[C@@H](CC2CCCC2)n2ncc(Oc3ccccc3F)cc2=O)n1 [Example 19B, (R)-3-Cyclopentyl-2-[4-(2-fluoro-phenoxy)-6-oxo-6H-pyridazin-1-yl]-N-[1-(2-hydroxy-2-methyl-propyl)-1H-pyrazol-3-yl]-propionamide]",3.411
19,CC(C)(O)Cn1ccc(NC(=O)C(CC2CCCC2)n2ncc(Oc3cccc4ccccc34)cc2=O)n1 (stereo not drawn) [Example 20],0.058
20,"CC(C)(O)Cn1ccc(NC(=O)C(CC2CCCC2)n2ncc(Oc3ccccc3C3CCCCC3)cc2=O)n1 (stereo not drawn) [Example 21, 2-[4-(2-Cyclohexyl-phenoxy)-6-oxo-6H-pyridazin-1-yl]-3-cyclopentyl-N-[1-(2-hydroxy-2-methyl-propyl)-1H-pyrazol-3-yl]-propionamide]",0.873
21,"CC(C)(O)Cn1ccc(NC(=O)[C@H](CC2CCCC2)n2ncc(Oc3ccccc3C3CCCC3)cc2=O)n1 [Example 22A, (S)-3-Cyclopentyl-2-[4-(2-cyclopentyl-phenoxy)-6-oxo-6H-pyridazin-1-yl]-N-[1-(2-hydroxy-2-methyl-propyl)-1H-pyrazol-3-yl]-propionamide]",0.263

# Source: patent publication US8258134B2, “Pyridazinone glucokinase activators” (Hoffmann-La Roche Inc., priority 2008, dated 2012)
